Source: patent publication US10344025B2, “GLS1 inhibitors for treating disease” (Board of Regents, The University of Texas System, priority 2014, dated 2019)
pIC50: −log10 of the molar value.

What follows are molecules tested against purified recombinant human GAC (GLS1) (Homo sapiens (Human), UniProt O94925) (assay: GLS1 Enzymatic Activity Assay (dual-coupled enzymatic assay, resorufin/Amplex UltraRed readout);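 further: glutamate from GAC coupled via glutamate oxidase and peroxidase to resorufin, read as fluorescence (ex 530, em 590 nm) kinetically or at 20 min, four-parameter logistic IC50 fit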).
Chain of purified recombinant human GAC (GLS1) (O94925 other isoform, or with tags, fused parts or gaps): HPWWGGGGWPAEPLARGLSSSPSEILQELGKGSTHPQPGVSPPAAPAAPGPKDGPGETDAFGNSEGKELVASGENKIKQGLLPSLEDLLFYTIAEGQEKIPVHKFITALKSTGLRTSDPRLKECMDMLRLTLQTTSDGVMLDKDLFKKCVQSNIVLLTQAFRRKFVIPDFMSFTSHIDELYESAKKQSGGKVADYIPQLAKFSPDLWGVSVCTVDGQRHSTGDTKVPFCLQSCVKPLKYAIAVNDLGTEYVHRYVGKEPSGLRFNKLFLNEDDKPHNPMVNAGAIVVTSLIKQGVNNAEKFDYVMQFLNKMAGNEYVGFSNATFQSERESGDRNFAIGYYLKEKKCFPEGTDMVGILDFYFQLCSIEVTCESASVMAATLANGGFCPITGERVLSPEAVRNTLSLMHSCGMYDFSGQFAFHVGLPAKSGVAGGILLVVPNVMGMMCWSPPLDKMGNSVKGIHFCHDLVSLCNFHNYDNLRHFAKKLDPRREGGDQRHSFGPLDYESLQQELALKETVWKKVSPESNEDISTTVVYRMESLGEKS
Assay type: biochemical

`O=C(Cc1cccc(OC(F)(F)F)c1)Nc1cn(CCCCn2cc(C(=O)NCc3cc(OC(F)(F)F)ccc3F)nn2)nn1` [Example 333, N-{[2-fluoro-5-(trifluoromethoxy)phenyl]methyl}-1-[4-(4-{2-[3-(trifluoromethoxy)phenyl]acetamido}-1H-1,2,3-triazol-1-yl)butyl]-1H-1,2,3-triazole-4-carboxamide] and `CCC(=O)NCc1cn(CCCCn2cc(C(=O)NCc3cccc(OC(F)(F)F)c3)nn2)nn1` [Example 58, 1-(4-(4-(propionamidomethyl)-1H-1,2,3-triazol-1-yl)butyl)-N-(3-(trifluoromethoxy)benzyl)-1H-1,2,3-triazole-4-carboxamide] fall in the same range of pIC50: 5.30 to 6.30 for the first, 5.30 to 6.30 for the second.

First: O=C(NCc1ccccc1)c1cn(CCCCc2nnc(C(=O)NCc3ccccn3)s2)nn1 [Example 40, 5-{4-[4-(benzylcarbamoyl)-1H-1,2,3-triazol-1-yl]butyl}-N-(pyridin-2-ylmethyl)-1,3,4-thiadiazole-2-carboxamide]
Second: O=C(NCc1ccccn1)c1cn(CCCCc2nnc(C(=O)NCC3CC3)s2)nn1 [Example 68, N-(cyclopropylmethyl)-5-(4-{4-[(pyridin-2-ylmethyl)carbamoyl]-1H-1,2,3-triazol-1-yl}butyl)-1,3,4-thiadiazole-2-carboxamide]
The pIC50 of the first is higher: 6.30 to 7.00 for the first, 5.30 to 6.30 for the second. The first is the more potent here.

`O=C(CC1CC1)Nc1cn(CCCCn2cc(C(=O)NCC3CCCCC3)nn2)nn1` [Example 281, N-(cyclohexylmethyl)-1-{4-[4-(2-cyclopropylacetamido)-1H-1,2,3-triazol-1-yl]butyl}-1H-1,2,3-triazole-4-carboxamide] and `O=C(CC1CCCC1)Nc1cn(CCCCn2cc(C(=O)NCC3CC3)nn2)nn1` [Example 304, 1-{4-[4-(2-cyclopentylacetamido)-1H-1,2,3-triazol-1-yl]butyl}-N-(cyclopropylmethyl)-1H-1,2,3-triazole-4-carboxamide] fall in the same range of pIC50: 5.30 to 6.30 for the first, 5.30 to 6.30 for the second.

First: Cc1ccc(CNC(=O)c2cn(CCCCn3cc(NC(=O)CN4CC(F)C4)nn3)nn2)cn1 [Example 348, 1-(4-{4-[2-(3-fluoroazetidin-1-yl)acetamido]-1H-1,2,3-triazol-1-yl}butyl)-N-[(6-methylpyridin-3-yl)methyl]-1H-1,2,3-triazole-4-carboxamide]
Second: Cc1ccc(CNC(=O)c2cn(CCC(F)Cn3cc(NC(=O)CN4CC(F)C4)nn3)nn2)cn1 (centres unmarked) [Example 374, 1-(3-fluoro-4-{4-[2-(3-fluoroazetidin-1-yl)acetamido]-1H-1,2,3-triazol-1-yl}butyl)-N-[(6-methylpyridin-3-yl)methyl]-1H-1,2,3-triazole-4-carboxamide]
The pIC50 of the first is lower: 5.30 to 6.30 for the first, 6.30 to 7.00 for the second.

First: Cc1ccc(CNC(=O)c2cn(CCCCc3nnc(C(=O)NCC4CN(C(=O)OC(C)(C)C)C4)s3)nn2)cn1 [Example 74, tert-butyl 3-[({5-[4-(4-{[(6-methylpyridin-3-yl)methyl]carbamoyl}-1H-1,2,3-triazol-1-yl)butyl]-1,3,4-thiadiazol-2-yl}formamido)methyl] azetidine-1-carboxylate]
Second: CC(C)NC(=O)c1nnc(CCCCn2cc(C(=O)NCc3ccccc3)nn2)s1 [Example 38, 5-{4-[4-(benzylcarbamoyl)-1H-1,2,3-triazol-1-yl]butyl}-N-(propan-2-yl)-1,3,4-thiadiazole-2-carboxamide]
The pIC50 of the first is higher: 6.30 to 7.00 for the first, 5.30 to 6.30 for the second.

`Cc1ccc(CNC(=O)c2cn(CCCCn3cc(NC(=O)CN4CCC(F)(F)CC4)nn3)nn2)cn1` [Example 358, 1-(4-{4-[2-(4,4-difluoropiperidin-1-yl)acetamido]-1H-1,2,3-triazol-1-yl}butyl)-N-[(6-methylpyridin-3-yl)methyl]-1H-1,2,3-triazole-4-carboxamide] and `Cc1ccc(CNC(=O)c2cn(CCCCn3cc(NC(=O)CN4CCC(F)(F)C4)nn3)nn2)cn1` [Example 354, 1-(4-{4-[2-(3,3-difluoropyrrolidin-1-yl)acetamido]-1H-1,2,3-triazol-1-yl}butyl)-N-[(6-methylpyridin-3-yl)methyl]-1H-1,2,3-triazole-4-carboxamide] fall in the same range of pIC50: 5.30 to 6.30 for the first, 5.30 to 6.30 for the second.

`O=C(CN1CCC(F)(F)C1)Nc1cn(CCCCn2cc(C(=O)NCc3ccccn3)nn2)nn1` [Example 325, 1-(4-{4-[2-(3,3-difluoropyrrolidin-1-yl)acetamido]-1H-1,2,3-triazol-1-yl}butyl)-N-(pyridin-2-ylmethyl)-1H-1,2,3-triazole-4-carboxamide] and `O=C(CN1CCC(F)(F)CC1)Nc1cn(CCCCn2cc(C(=O)NCc3ccccn3)nn2)nn1` [Example 326, 1-(4-{4-[2-(4,4-difluoropiperidin-1-yl)acetamido]-1H-1,2,3-triazol-1-yl}butyl)-N-(pyridin-2-ylmethyl)-1H-1,2,3-triazole-4-carboxamide] fall in the same range of pIC50: 5.30 to 6.30 for the first, 5.30 to 6.30 for the second.

`O=C(CC1CC1)Nc1cn(CCCCn2cc(C(=O)NCc3cccnc3)nn2)nn1` [Example 308, 1-{4-[4-(2-cyclopropylacetamido)-1H-1,2,3-triazol-1-yl]butyl}-N-(pyridin-3-ylmethyl)-1H-1,2,3-triazole-4-carboxamide] and `O=C(Cc1cccnc1)Nc1cn(CCCCn2cc(C(=O)NCC3CC3)nn2)nn1` [Example 303, N-(cyclopropylmethyl)-1-(4-{4-[2-(pyridin-3-yl)acetamido]-1H-1,2,3-triazol-1-yl}butyl)-1H-1,2,3-triazole-4-carboxamide] fall in the same range of pIC50: 5.30 to 6.30 for the first, 5.30 to 6.30 for the second.

First: CC(C)(C)OC(=O)N1CCC(Cn2cc(CCCCn3cc(C(=O)NCc4cccc(OC(F)(F)F)c4)nn3)nn2)CC1 [Example 53]
Second: CC(C)NC(=O)c1cn(CCCCc2nnc(NC(=O)Cc3cccc(OC(F)(F)F)c3)s2)nn1 [Example 10, N-(propan-2-yl)-1-[4-(5-{2-[3-(trifluoromethoxy)phenyl]acetamido}-1,3,4-thiadiazol-2-yl)butyl]-1H-1,2,3-triazole-4-carboxamide]
The pIC50 of the first is lower: 5.30 to 6.30 for the first, 6.30 to 7.00 for the second.

`O=C(Cc1ccccc1)Nc1nnc(CCCCn2cc(C(=O)NCCN3CCC(O)CC3)nn2)s1` [Example 14, N-[2-(4-hydroxypiperidin-1-yl)ethyl]-1-{4-[5-(2-phenylacetamido)-1,3,4-thiadiazol-2-yl]butyl}-1H-1,2,3-triazole-4-carboxamide] and `O=C(CC1CC1)Nc1cn(CCCCn2cc(C(=O)NCc3ccccn3)nn2)nn1` [Example 278, 1-{4-[4-(2-cyclopropylacetamido)-1H-1,2,3-triazol-1-yl]butyl}-N-(pyridin-2-ylmethyl)-1H-1,2,3-triazole-4-carboxamide] fall in the same range of pIC50: 5.30 to 6.30 for the first, 5.30 to 6.30 for the second.

`O=C(Cc1ccccn1)Nc1cn(CCCCn2cc(C(=O)NCc3ccccn3)nn2)nn1` [Example 297, 1-[4-[4-[[2-(2-pyridyl)acetyl]amino]triazol-1-yl]butyl]-N-(2-pyridylmethyl)triazole-4-carboxamide] and `O=C(NCc1ccccn1)c1cn(CCCCn2cc(C(=O)NCc3ccccn3)nn2)nn1` [Example 71, N-(pyridin-2-ylmethyl)-1-(4-{4-[(pyridin-2-ylmethyl)carbamoyl]-1H-1,2,3-triazol-1-yl}butyl)-1H-1,2,3-triazole-4-carboxamide] fall in the same range of pIC50: 5.30 to 6.30 for the first, 5.30 to 6.30 for the second.

With `O=C(CC1CCCCC1)Nc1cn(CCCCn2cc(C(=O)NCC3CCCC3)nn2)nn1` [Example 289, 1-{4-[4-(2-cyclohexylacetamido)-1H-1,2,3-triazol-1-yl]butyl}-N-(cyclopentylmethyl)-1H-1,2,3-triazole-4-carboxamide] the pIC50 was 5.30 to 6.30.
